Data set [1] has as its system viral construct V-18. Briefly: cell spread assay (WO 01/05230), viral construct V-18. Type of data set: cell-based, HIV. From the text: (§1) Compound A and its hydrohalide salts are inhibitors of HIV protease, including mutant forms thereof that are resistant to known protease inhibitors.
Data set [2] has as its target HIV protease mutant enzyme K-60 (Human immunodeficiency virus type 1, UniProt P04585). The experiment in a line: inhibition of microbial expressed HIV protease (WO 01/05230), mutant enzyme K-60. Type of data set: biochemical.
Data set [3] addresses wild-type HIV protease (Human immunodeficiency virus type 1 group M subtype B, UniProt P04585). Briefly: biochemical.
Data set [4] can be described thus: solubility in aqueous solutions. Type of data set: physicochemical. Particulars: aqueous solutions including dilute HCl (gastric acid) solutions.
Data set [5] concerns viral construct K-60. The experiment in a line: cell spread assay (WO 01/05230), viral construct K-60. Type of data set: cell-based, HIV.
Text: as §1

Data set [6] has as its target HIV protease mutant enzyme V-18 (Human immunodeficiency virus type 1, UniProt P04585). Briefly: inhibition of microbial expressed HIV protease (WO 01/05230), mutant enzyme V-18. Type of data set: biochemical.
The subject of data set [7] is viral construct Q60. Briefly: cell spread assay (WO 01/05230), viral construct Q60. The class given is cell-based, HIV.
Text: as §1

A short description of data set [8]: oral absorption and pharmacokinetics in animal models. The class given is in vivo.
The target in data set [9] is HIV protease mutant enzyme Q-60 (Human immunodeficiency virus type 1, UniProt P04585). Briefly: inhibition of microbial expressed HIV protease (WO 01/05230), mutant enzyme Q-60. Type of data set: biochemical.
The test system of data set [10] is wild-type viral construct. The experiment in a line: cell spread assay (WO 01/05230), wild-type viral construct. Type of data set: cell-based, HIV.
Text: as §1

Broadly, the IC50 is the midpoint of a concentration-inhibition curve.

`COc1cncc(-c2cnc(C(C)(C)N3CCN(C[C@@H](O)C[C@@H](Cc4ccccc4)C(=O)N[C@H]4c5ccccc5OC[C@H]4O)[C@H](C(=O)NCC(F)(F)F)C3)o2)c1` [Compound A, (αR,γS,2S)-N-[(3S,4S)-3,4-dihydro-3-hydroxy-2H-1-benzopyran-4-yl]-y-hydroxy-4-[1-[5-(5-methoxy-3-pyridinyl)-2-oxazolyl]-1-methylethyl]-α-(phenylmethyl)-2-[[(2,2,2-trifluoroethyl)amino]carbonyl]-1-piperazinepentanamide]: the CIC95 entry is listed as “below 125 nM” in data set [1], “below 125 nM” in data set [5], “below 125 nM” in data set [7] and “below 50 nM” in data set [10] (wild-type viral construct). Further, the IC50 in data set [2] was less than 5 nM; in [3] it was less than 1 nM; in data set [6], less than 5 nM; in [9], less than 5 nM. In addition, the “potency compared with indinavir” value in data set [3] (HIV protease inhibition assay) and in [10] (cell spread assay) was “significantly more potent” in each case. Also, in data set [4], the solubility result is “relatively low solubility”. Moreover, in data set [8], the oral absorption entry was “poor oral absorption”.

Values taken from US20030125336A1, “Hydrohalide salts of an HIV protease inhibitor” (priority 2001, published 2003).
